Measured values taken from ChEMBL document CHEMBL3885881, “DrugMatrix”.

Species on record: Rattus norvegicus
Experiment: DrugMatrix - Regimen: Daily Repeat
Assay type: toxicity, organism-based, Sprague-Dawley
Parameters: regimen Daily Repeat, gender Male, age 6-8 weeks
Conditions: in vivo, iv, 0 mg/kg, dose level Control, vehicle 100 % SALINE; for ABSOLUTE BASOPHIL / ABSOLUTE EOSINOPHIL / ABSOLUTE LYMPHOCYTE / ABSOLUTE MONOCYTE / ABSOLUTE SEGMENTED NEUTROPHIL / BASOPHIL / EOSINOPHIL / ERYTHROCYTE COUNT / HEMATOCRIT / HEMOGLOBIN / LEUKOCYTE COUNT / LYMPHOCYTE / MEAN CORPUSCULAR HEMOGLOBIN / MEAN CORPUSCULAR HEMOGLOBIN CONCENTRATION / MEAN CORPUSCULAR VOLUME / MONOCYTE / NEUTROPHIL / NUCLEATED RED BLOOD CELLS / PLATELET COUNT: tissue Blood; for ALANINE AMINOTRANSFERASE / ALBUMIN / ALKALINE PHOSPHATASE / ASPARTATE AMINOTRANSFERASE / BLOOD UREA NITROGEN / CARBON DIOXIDE / CHLORIDE / CHOLESTEROL / CREATINE PHOSPHOKINASE / CREATININE / GLUCOSE / LACTATE DEHYDROGENASE / LIPASE / PHOSPHORUS / POTASSIUM / SODIUM / TOTAL BILIRUBIN / TOTAL PROTEIN / URIC ACID: tissue Plasma

CN(N=O)C(=O)N[C@@H](C=O)[C@@H](O)[C@H](O)[C@H](O)CO [STREPTOZOCIN]
ABSOLUTE BASOPHIL (72 h, time 3 day): 0 CELLS/uL | ABSOLUTE EOSINOPHIL (72 h, time 3 day): 247.67 CELLS/uL | ABSOLUTE LYMPHOCYTE (72 h, time 3 day): 13190.83 CELLS/uL | ABSOLUTE MONOCYTE (72 h, time 3 day): 307.67 CELLS/uL | ABSOLUTE SEGMENTED NEUTROPHIL (72 h, time 3 day): 1220.5 CELLS/uL | BASOPHIL (72 h, time 3 day): 0% | EOSINOPHIL (72 h, time 3 day): 1.67% | ERYTHROCYTE COUNT (72 h, time 3 day): 5.47 x10E6/uL | HEMATOCRIT (72 h, time 3 day): 33.98% | HEMOGLOBIN (72 h, time 3 day): 12.65 G/DL | LEUKOCYTE COUNT (72 h, time 3 day): 14.97 x10E3/uL | LYMPHOCYTE (72 h, time 3 day): 88.17% | MEAN CORPUSCULAR HEMOGLOBIN (72 h, time 3 day): 23.17 pg | MEAN CORPUSCULAR HEMOGLOBIN CONCENTRATION (72 h, time 3 day): 37.23 G/DL | MEAN CORPUSCULAR VOLUME (72 h, time 3 day): 62.25 fL | MONOCYTE (72 h, time 3 day): 2% | NEUTROPHIL (72 h, time 3 day): 8.17% | NUCLEATED RED BLOOD CELLS (72 h, time 3 day): 0 /100WBC | PLATELET COUNT (72 h, time 3 day): 1307.17 x10E3/uL | ALANINE AMINOTRANSFERASE (72 h, time 3 day): 39.67 u/L | ALBUMIN (72 h, time 3 day): 4.08 G/DL | ALKALINE PHOSPHATASE (72 h, time 3 day): 383.17 u/L | ASPARTATE AMINOTRANSFERASE (72 h, time 3 day): 88.83 u/L | BLOOD UREA NITROGEN (72 h, time 3 day): 18.5 mg/dL | CARBON DIOXIDE (72 h, time 3 day): 27.5 mmol/L | CHLORIDE (72 h, time 3 day): 103 MEQ/L | CHOLESTEROL (72 h, time 3 day): 67.33 mg/dL | CREATINE PHOSPHOKINASE (72 h, time 3 day): 414.67 u/L | CREATININE (72 h, time 3 day): 0.19 mg/dL | GLUCOSE (72 h, time 3 day): 149.33 mg/dL | LACTATE DEHYDROGENASE (72 h, time 3 day): 536.83 u/L | LIPASE (72 h, time 3 day): 8.83 u/L | PHOSPHORUS (72 h, time 3 day): 11.13 mg/dL | POTASSIUM (72 h, time 3 day): 6.23 MEQ/L | SODIUM (72 h, time 3 day): 144.42 MEQ/L | TOTAL BILIRUBIN (72 h, time 3 day): 0.18 mg/dL | TOTAL PROTEIN (72 h, time 3 day): 5.57 G/DL | URIC ACID (72 h, time 3 day): 1.23 mg/dL | ABSOLUTE BASOPHIL (120 h, time 5 day): 0 CELLS/uL | ABSOLUTE EOSINOPHIL (120 h, time 5 day): 158.83 CELLS/uL | ABSOLUTE LYMPHOCYTE (120 h, time 5 day): 13517.17 CELLS/uL | ABSOLUTE MONOCYTE (120 h, time 5 day): 352.67 CELLS/uL | ABSOLUTE SEGMENTED NEUTROPHIL (120 h, time 5 day): 1104.67 CELLS/uL | BASOPHIL (120 h, time 5 day): 0% | EOSINOPHIL (120 h, time 5 day): 1% | ERYTHROCYTE COUNT (120 h, time 5 day): 5.73 x10E6/uL | HEMATOCRIT (120 h, time 5 day): 36.85% | HEMOGLOBIN (120 h, time 5 day): 13.67 G/DL | LEUKOCYTE COUNT (120 h, time 5 day): 15.13 x10E3/uL | LYMPHOCYTE (120 h, time 5 day): 89.5% | MEAN CORPUSCULAR HEMOGLOBIN (120 h, time 5 day): 23.87 pg | MEAN CORPUSCULAR HEMOGLOBIN CONCENTRATION (120 h, time 5 day): 37.1 G/DL | MEAN CORPUSCULAR VOLUME (120 h, time 5 day): 64.33 fL | MONOCYTE (120 h, time 5 day): 2.33% | NEUTROPHIL (120 h, time 5 day): 7.17% | NUCLEATED RED BLOOD CELLS (120 h, time 5 day): 0.17 /100WBC | PLATELET COUNT (120 h, time 5 day): 1266 x10E3/uL | ALANINE AMINOTRANSFERASE (120 h, time 5 day): 49.17 u/L | ALBUMIN (120 h, time 5 day): 4.22 G/DL | ALKALINE PHOSPHATASE (120 h, time 5 day): 352.67 u/L | ASPARTATE AMINOTRANSFERASE (120 h, time 5 day): 95.17 u/L | BLOOD UREA NITROGEN (120 h, time 5 day): 18.83 mg/dL | CARBON DIOXIDE (120 h, time 5 day): 25.67 mmol/L | CHLORIDE (120 h, time 5 day): 102.67 MEQ/L | CHOLESTEROL (120 h, time 5 day): 66.83 mg/dL | CREATINE PHOSPHOKINASE (120 h, time 5 day): 550.33 u/L | CREATININE (120 h, time 5 day): 0.23 mg/dL | GLUCOSE (120 h, time 5 day): 186.17 mg/dL | LACTATE DEHYDROGENASE (120 h, time 5 day): 471.33 u/L | LIPASE (120 h, time 5 day): 8.67 u/L | PHOSPHORUS (120 h, time 5 day): 12.3 mg/dL | POTASSIUM (120 h, time 5 day): 6.35 MEQ/L | SODIUM (120 h, time 5 day): 143.57 MEQ/L | TOTAL BILIRUBIN (120 h, time 5 day): 0.18 mg/dL | TOTAL PROTEIN (120 h, time 5 day): 6.05 G/DL | URIC ACID (120 h, time 5 day): 2 mg/dL
